Test results from US11667675B2, “MASP inhibitory compounds and uses thereof” (Bayer Aktiengesellschaft, priority 2019, dated 2023).
Read-outs that look alike come from different tables or passages of the source. Bridge positions count the residues as written; N and C are the ends. Square brackets hold non-standard residues; d marks the D form. Peptide text beside a SMILES is read from it. Oic = O=C(O)[C@@H]1C[C@@H]2CCCC[C@@H]2N1; Pen = CC(C)(S)[C@H](N)C(=O)O; ΔPro = O=C(O)[C@@H]1C=CCN1; Sar = CNCC(=O)O

Legend:
[1] = test system: Human C3-[…]; experiment: C3 deposition assay, human serum on mannan-coated plates; format: biochemical
Experimental: 3. C3 Deposition Assay (Human, Rat, Mouse, Dog, Mini-Pig)
The C3 deposition assay was conducted essentially as described (reference). Multi well plates (Greiner-Nunc 384 Maxi Sorp #464718) were coated over night with Mannan from Saccharomyces cerevisiae (Sigma M7504, 10 μg/mL in 0.05 M carbonate-bicarbonate buffer, pH 9.6) at 4° C. Wells were washed three times with TBS and subsequently incubated for 2 hours with 50 μL of 1% bovine serum albumin (BSA) in Tris-buffered saline (TBS) at 37° C. in order to block non-specific binding. After this step and each of the following incubation steps wells were washed three times with C3 wash buffer (TBS; 0.05% Tween 20; 5 mM CaCl2). […] When appropriately developed the color reaction was stopped by addition of 25 μL of stop solution (Sigma S5814) and quantified on a photometer by measuring absorption at a wavelength of 450 nm. Antibodies were diluted in C3 wash buffer supplemented with 0.5% BSA.

[2] = molecular target: T1, human MASP1 (Homo sapiens, UniProt P48740); experiment: Biochemical human MASP1 assay (FRET substrate); conditions: average IC50
T1 construct: Ig-kappa secretion signal (N, cleaved yes); made in house; host or cells: HEK293 (ATCC No. CRL-1573)
T1 sequence (P48740 297-448): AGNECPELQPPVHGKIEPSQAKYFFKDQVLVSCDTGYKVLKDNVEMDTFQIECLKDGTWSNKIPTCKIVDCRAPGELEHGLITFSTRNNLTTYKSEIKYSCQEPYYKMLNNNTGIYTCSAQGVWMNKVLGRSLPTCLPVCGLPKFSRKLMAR
T1 sequence (P48740 449-699): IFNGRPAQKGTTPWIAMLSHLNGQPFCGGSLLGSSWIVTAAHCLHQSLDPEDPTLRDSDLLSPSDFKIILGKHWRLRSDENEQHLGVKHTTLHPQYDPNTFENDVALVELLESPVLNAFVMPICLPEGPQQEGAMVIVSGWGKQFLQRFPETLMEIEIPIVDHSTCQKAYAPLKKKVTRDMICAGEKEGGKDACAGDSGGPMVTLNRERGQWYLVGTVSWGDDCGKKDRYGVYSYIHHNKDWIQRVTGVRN
Description: (§1) 2.1 Recombinant Expression and Protein Production of Recombinant Human MASP1 and MASP2 Active Proteases.
(§2) The MASP1 or MASP2 expression vectors were transfected into the HEK293 (ATCC No. CRL-1573) cell line using Lipofectamine LTX® Reagent (Thermo-Fischer), as described by the manufacturer. […] The MASP1 and MASP2 proteins were purified from the conditioned media by affinity chromatography on Ni-NTA Superflow resin (Qiagen) as described by the manufacturer.
2.2 Biochemical Human MASP1 Assay
(§3) Recombinant human MASP1 enzyme produced in the HEK 293 cells was diluted in the reaction buffer (50 mM HEPES pH 8,0; 100 mM NaCl; 0.01% CHAPS; 0.5 mM Gluthathione) to the concentration of 20 nM and 25 μl was transferred into each single well of 384-well white microtiter plate (Greiner Bio One 781075). 1 μl of the inhibitor compound solution (dissolved in DMSO, at the corresponding concentration) or pure DMSO as a control was added to the same wells. […] The microtiter plate was incubated for 60-120 min at the temperature of 32 C. The increase of fluorescence intensity was measured in appropriate fluorescence plate reader (e.g. TECAN Ultra) using excitation wavelength of 320 nm and emission wavelength of 420 nm. IC50 values were calculated from percentage of inhibition of human MASP1 activity as a function of test compound concentration.

[3] = molecular target: T2, human MASP2 (Homo sapiens, UniProt O00187); experiment: Biochemical human MASP2 assay (FRET substrate); conditions: average IC50
T2 construct: Ig-kappa secretion signal (N, cleaved yes); made in house; host or cells: HEK293 (ATCC No. CRL-1573)
T2 sequence (O00187 297-444): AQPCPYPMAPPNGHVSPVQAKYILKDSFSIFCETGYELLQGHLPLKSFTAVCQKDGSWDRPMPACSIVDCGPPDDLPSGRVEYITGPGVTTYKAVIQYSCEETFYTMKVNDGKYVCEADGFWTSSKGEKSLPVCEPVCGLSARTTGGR
T2 sequence (O00187 445-686): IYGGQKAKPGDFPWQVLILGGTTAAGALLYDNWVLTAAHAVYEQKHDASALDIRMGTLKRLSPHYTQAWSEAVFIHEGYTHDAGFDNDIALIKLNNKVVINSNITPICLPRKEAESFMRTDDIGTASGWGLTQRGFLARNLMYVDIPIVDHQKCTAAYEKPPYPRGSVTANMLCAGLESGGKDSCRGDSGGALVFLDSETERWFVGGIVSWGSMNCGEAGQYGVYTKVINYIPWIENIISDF
Description: as §1, §2
2.3 Biochemical Human MASP2 Assay
as §3, with “MASP2” for “MASP1”, “340” for “320”, “490” for “420”

[4] = average IC50, read-out: Human C3-DEPOSITION SERUM IC50

Molecule	IC50 [1, 4] [nM]	IC50 [2] [nM]	IC50 [3] [nM]	IC50 ([1]; average IC50, read-out: Human C3-[…] IC50) [nM]
AIC+SRSLP-(Oic)-I-(Pen)+IPN-OH [Example 418]	53.9	–	–	–
((N-Me)G)-IC+SRSLP-(Oic)-I-(Pen)+I-((5-Azaspiro[2.4]heptane-1-carboxylic acid)OH [Example 164]	81.6	–	–	–
((N-Me)G)-IC+SRSLP-(Oic)-I-(Pen)+IPD-NH2 [Example 165]	36	–	–	–
CC[C@H](C)[C@@H]1NC(=O)[C@@H]2CCCN2C(=O)[C@@H]2CCCN2C(=O)[C@H](CC(C)(C)C)NC(=O)[C@H](CO)NC(=O)[C@H](CCCNC(=N)N)NC(=O)[C@H](CO)NC(=O)[C@@H](NC(=O)[C@@H](NC(=O)C(C)(C)CN)[C@@H](C)CC)CSSC(C)(C)[C@@H](C(=O)N[C@H](C(=O)N2CCC[C@H]2C(=O)N[C@@H](CC(=O)O)C(N)=O)[C@@H](C)CC)NC1=O [Example 166, (3-Amino-2,2-dimethylpropionic acid)-IC+SRS-((tBu)A)-PPI-(Pen)+IPD-NH2]	33.4	4.2	–	–
(2-Hydroxyacetyl)-IC+SRS-((tBu)A)-PPI-(Pen)+IPD-NH2 [Example 300]	59.8	–	–	–
AIC+SRS-((tBu)A)-PPI-((N-Me)C)+IPD-NH2 (HCl Salt) [Example 30]	36.1	–	–	–
CC[C@H](C)[C@H](NC(=O)[C@H](C)N)C(=O)N[C@H]1CSSC(C)(C)[C@@H](C(=O)N[C@H](C(=O)N2CCC[C@H]2C(=O)N[C@@H](CC(=O)O)C(=O)O)[C@@H](C)CC)NC(=O)[C@H]([C@@H](C)CC)NC(=O)[C@@H]2C[C@@H]3CCCC[C@@H]3N2C(=O)[C@@H]2C=CCN2C(=O)[C@H](CC(C)C)NC(=O)[C@H](CO)NC(=O)[C@H](CCCNC(=N)N)NC(=O)[C@H](CO)NC1=O [Example 237] (H-AICSRSL[ΔPro][Oic]I[Pen]IPD-OH; disulfide 3-11)	14.7	9.3	64	–
N-[(5aS,11S,14S,17S,20S,23R,28R,31S,33aS)-31-[(2S)-butan-2-yl]-17-(3-carbamimidamidopropyl)-11-(2,2-dimethylpropyl)-14,20-bis(hydroxymethyl)-27,27-dimethyl-23-({N-[(morpholin-4-yl)acetyl]-L-isoleucyl}amino)-5,10,13,16,19,22,30,33-octaoxooctacosahydro-1H,5H,10H-dipyrrolo[2,1-j:2′,1′][1,2,5,8,11,14,17,20,23,26]dithiaoctaazacyclononacosine-28-carbonyl]-L-isoleucyl-L-prolyl-L-alpha-asparagine [Example 283]	69.8	–	–	–
CC[C@H](C)[C@H](NC(=O)[C@@H]1CSSC[C@H](NC(=O)[C@@H](NC(=O)[C@@H](N)C2CCOCC2)[C@@H](C)CC)C(=O)N[C@@H](CO)C(=O)N[C@@H](CCCNC(=N)N)C(=O)N[C@@H](CO)C(=O)N[C@@H](CC(C)C)C(=O)N2CCC[C@H]2C(=O)N2[C@@H](C[C@@H]3CCCC[C@@H]32)C(=O)N[C@@H]([C@@H](C)CC)C(=O)N1)C(=O)O (single isomer, unassigned) [Example 184]	–	4.7	200	43
IC+SRSLP-(Oic)-I-(Pen)+IPD-OH [Example 347]	151	–	–	–
CC[C@H](C)[C@H](NC(=O)CNC)C(=O)N[C@H]1CSSC(C)(C)[C@@H](C(=O)N[C@H](C(=O)N2CCC[C@H]2C(N)=O)[C@@H](C)CC)NC(=O)[C@H]([C@@H](C)CC)NC(=O)[C@@H]2C[C@@H]3CCCC[C@@H]3N2C(=O)[C@@H]2CCCN2C(=O)[C@H](CC(C)C)NC(=O)[C@H](CO)NC(=O)[C@H](CCCNC(=N)N)NC(=O)[C@H](CO)NC1=O [Example 376] (H-[Sar]ICSRSLP[Oic]I[Pen]IP-NH2; disulfide 3-11)	13.8	1.1	35	–
